From ChEMBL document CHEMBL1143860, “Synthesis and biological activity of phosphatidylinositol-3,4,5-trisphosphorothioate” (Bioorg Med Chem Lett, 2008)
Active and inactive are the calls of the source. No cut-off for these calls is given here.

Tested on: A6
Assay: Agonist activity at […] expressed in A6 cells assessed as increase in insulin-stimulated sodium transport at 50 uM
Format: functional, cell-based

SMILES: CCCCCCCCCCCCCCCC(=O)OC[C@H](COP(=O)(O)O[C@H]1[C@H](O)[C@@H](OP(O)(O)=S)[C@H](OP(O)(O)=S)[C@@H](OP(O)(O)=S)[C@H]1O)OC(=O)CCCCCCCCCCCCCCC
- Activity: Active
